Columns and labels:
[1] = molecular target: T1, RNA polymerase from E. coli (RNAP) (Escherichia coli, UniProt P0A7Z4+P0A8T7+P0A8V2); assay: *NO-dependent RNAP inactivation assay (in vitro transcription); assay type: biochemical; details: for *NO-dependent inactivation of RNAP (transcription) in the presence of ANSA: RNAP + ANSA treated with low dose of *NO; for Effect on transcription by RNAP, agent alone: agent added alone (*NO low dose without ANSA; ANSA without *NO)
T1 construct: made in house
Procedure: Transcription reactions (total volume=20 μl) were performed in a buffer containing 20 mM Tris HCL, pH 7.5, 10 mM MgCl2, 50 mM KCl, 8 μM ATP, GTP, UTP, 1.8 μM CTP, and 0,15 μM [α-^32P] CTP (3000 Ci/mmol) for 5 minutes at 37° C. RNAP was purified as described (Nudler et al, 1996). The DNA template containing the A1 promoter of phage T7 was obtained by polymerase chain reaction from the plasmid pENtR2 (Nudler et al, 1996).
Hydrophobic Amines (ANSA) as *NO-Dependent Enzyme Inhibitors. To investigate whether this mechanism might be functioning in proteins other than BSA, the effect of nitrosation on a completely distinct protein—RNA polymerase from E. coli (RNAP)—was examined. The experiments were done by exposing RNAP to a low dose of *NO, and then adding the DNA template and ribonucleotide substrates to initiate the transcription reaction. For a control, a solution of NO2^− for the *NO was substituted by oxidizing *NO prior to the experiment. […] The *NO-dependent inhibition of RNAP was complex. […] Shorter transcripts represent paused RNAP molecules resulting from the limited amount of CTP in the reaction. […] The complex inhibitory effect of nitrosation on RNAP is not surprising since many potential nitrosation targets are distributed in structurally and functionally distinct regions of the enzyme (Zhang et al, 1999).
To determine whether this process could also occur with RNAP, the mixture of RNAP+ANSA II was treated with *NO (FIG. 3, lane 4).
To further test the autocatalytic mechanism of enzyme inactivation and the key role of nitrosation-azocoupling in this process additional ANSA was synthesized and were tested in the *NO-dependent RNAP inactivation assay (FIG. 3). […] ANSA VI and ANSA VII, with methyl and peptidyl substitutions in the NH2 group, were incapable of forming aryldiazonium cation upon nitrosation. […] This experiment raises the possibility that hydrophobic amines could be used as efficient tools for the *NO-dependent inactivation of enzymes.

[2] = test system: prostatic carcinoma cell lines DU-145 and PC-3 and normal human fibroblasts (WI-38); assay: MTS cytotoxicity assay (CellTiter 96); details: for Cytotoxic effect / cell survival (MTS, in words): 0.1-100 μM, 72 h, presence or absence of *NO; for Effect of the additive on ANSA cytotoxicity: NO trap or general NOS inhibitor added
Procedure: A second preliminary study used two human hormone-independent prostatic carcinoma cell lines DU-145 and PC-3 (ATCC, Virginia) and normal human fibroblasts (WI-38). The MTS cytotoxicity assay (“CellTiter 96”, Promega) was used to measure the cytotoxicity of several ANSA compounds in the presence or absence of *NO. All compounds tested in vitro were dissolved in DMSO ([…]) and subsequently diluted in the culture medium before treatment of the cultured cells. Tested cells were plated in 96-well plates at a density of 4×10^3 cells/well/200 μL of the proper culture medium and treated with the compounds at concentrations of 0.1-100 μM. In parallel, the cells were treated with 1% of DMSO as control. MTS assay was performed 72 h later according to instructions provided by the manufacturer (Promega). This assay is based on the cellular conversion of the tetrazolium salt, MTS[3-(4,5-dimethylthiazol-2-yl)-5-(3-carboxymethoxyphenyl)-2-(4-sulfophenyl)-2H-tetrazolium, inner salt], into a formazan that is soluble in cell culture medium and is measured at 490 nm directly in 96-well assay plates without additional processing. Absorbency is directly proportional to the number of living cells in culture.
In order to be nitrosated, peptidyl-ANSA must undergo cleavage of the C-terminal amino acid residue to relieve the R3 NH2 group.

BSA = molecular target: T2, BSA (Bos taurus, UniProt P02769); assay: Complex formation and nitrosation of ANSA in the presence of BSA (gel filtration, fluorescence, TLC); assay type: binding; details: for Nitrosation of ANSA in the ANSA I+ANSA II+BSA mixture: low dose of *NO (5 molar excess), aerobic
T2 construct: purchased Sigma
Procedure: ANSA were synthesized from 5-nitronaphthalenesulphoacids and 5-aminonaphthalenesulphoacids (Reahim). TLC of ANSA and their derivatives was carried out on Silica gel 60 plates (Merck) in the hexane/ethyl acetate system. Gel filtration was performed using the Sephadex G25M size-exclusion column (Pharmacia). Fluorescence of ANSA was observed and measured under 365 nm UV light using BioRad Fluor-S MultiImager system.
The present inventors first synthesized two ANSA with opposite hydrophobic properties (FIG. 12B). In the low-hydrophobic ANSA molecule (ANSA I), the R1 group is —CH3 and the R2 group is —H. The highly hydrophobic ANSA (ANSA II) has C3H7 for both R1 and RExperiments were done by mixing an aqueous solution of ANSA with the test protein, and then initiating the nitrosation reaction by the aerobic addition of an aqueous solution of *NO. Two initial concentrations of *NO were used at 25 molar excess over ANSA (high dose) and a 5 molar excess (low dose).

[3] = test system: Escherichia coil strain BL21; assay: Bactericidal effect of ANSA derivatives on E. coli cultures (CFU count); assay type: cell-based, Escherichia coli; details: 20 μg/ml ANSA, 30 minutes, room temperature, start 10^7 CFU ml^−1, *NO and/or PTIO 20 μM where indicated; for CFU, E. coli, rich media: LB broth; for CFU, E. coli, minimal media: M9 minimal media
Procedure: (§1) ANSA Derivatives as a New Class of Antibiotics and Antineoplastic Drugs. ANSA derivatives (shown in FIG. 9) were tested for their cytotoxic capabilities using wild type strains of Gram-negative and Gram-positive bacterial (Escherichia coil strain BL21 and Bacillus subtilis Strain IS75).

[4] = test system: Bacillus subtilis Strain IS75; assay: Bactericidal effect of ANSA derivatives on B. subtilis cultures (CFU count); assay type: cell-based; details: 20 μg/ml ANSA, 30 minutes, room temperature, start 10^7 CFU ml^−1, *NO and/or PTIO 20 μM where indicated; for CFU, B. subtilis, rich media: LB broth; for CFU, B. subtilis, minimal media: Spizizen's minimal media
Procedure: as §1

[5] = test system: Escherichia coil strain BL21 and Bacillus subtilis Strain IS75; assay: Bactericidal effect on Gram-negative and Gram-positive bacteria; assay type: cell-based, Escherichia coli; Bacillus subtilis; details: for Effect of the additive on the bactericidal effect of ANSA (CFU): NO trap or water solution of NO added with ANSA
Procedure: as §1
In order to be nitrosated, peptidyl-ANSA must undergo cleavage of the C-terminal amino acid residue to relieve the R3 NH2 group. Taking advantage of the chromogenic nature of ANSA compounds, it was possible to determine whether the peptidyl-ANSA were transported in the cell and processed by proteolysis.

T2 sequence (P02769 25-607): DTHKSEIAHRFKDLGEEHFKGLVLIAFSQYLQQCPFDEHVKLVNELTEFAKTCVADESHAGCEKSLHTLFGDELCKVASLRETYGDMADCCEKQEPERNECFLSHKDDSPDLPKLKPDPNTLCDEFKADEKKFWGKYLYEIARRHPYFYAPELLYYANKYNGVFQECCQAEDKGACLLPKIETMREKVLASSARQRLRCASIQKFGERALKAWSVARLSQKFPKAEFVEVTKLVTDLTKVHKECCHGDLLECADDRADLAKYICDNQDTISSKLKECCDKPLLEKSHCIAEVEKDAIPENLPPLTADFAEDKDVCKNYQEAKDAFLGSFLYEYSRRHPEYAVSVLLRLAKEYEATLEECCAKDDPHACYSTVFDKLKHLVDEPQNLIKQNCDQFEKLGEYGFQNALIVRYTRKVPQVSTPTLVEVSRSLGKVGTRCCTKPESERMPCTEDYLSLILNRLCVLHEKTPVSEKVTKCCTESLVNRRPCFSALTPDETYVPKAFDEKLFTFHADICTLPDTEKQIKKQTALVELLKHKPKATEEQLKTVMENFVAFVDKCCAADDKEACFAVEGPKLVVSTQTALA
T1 sequence (P0A8V2 whole entry): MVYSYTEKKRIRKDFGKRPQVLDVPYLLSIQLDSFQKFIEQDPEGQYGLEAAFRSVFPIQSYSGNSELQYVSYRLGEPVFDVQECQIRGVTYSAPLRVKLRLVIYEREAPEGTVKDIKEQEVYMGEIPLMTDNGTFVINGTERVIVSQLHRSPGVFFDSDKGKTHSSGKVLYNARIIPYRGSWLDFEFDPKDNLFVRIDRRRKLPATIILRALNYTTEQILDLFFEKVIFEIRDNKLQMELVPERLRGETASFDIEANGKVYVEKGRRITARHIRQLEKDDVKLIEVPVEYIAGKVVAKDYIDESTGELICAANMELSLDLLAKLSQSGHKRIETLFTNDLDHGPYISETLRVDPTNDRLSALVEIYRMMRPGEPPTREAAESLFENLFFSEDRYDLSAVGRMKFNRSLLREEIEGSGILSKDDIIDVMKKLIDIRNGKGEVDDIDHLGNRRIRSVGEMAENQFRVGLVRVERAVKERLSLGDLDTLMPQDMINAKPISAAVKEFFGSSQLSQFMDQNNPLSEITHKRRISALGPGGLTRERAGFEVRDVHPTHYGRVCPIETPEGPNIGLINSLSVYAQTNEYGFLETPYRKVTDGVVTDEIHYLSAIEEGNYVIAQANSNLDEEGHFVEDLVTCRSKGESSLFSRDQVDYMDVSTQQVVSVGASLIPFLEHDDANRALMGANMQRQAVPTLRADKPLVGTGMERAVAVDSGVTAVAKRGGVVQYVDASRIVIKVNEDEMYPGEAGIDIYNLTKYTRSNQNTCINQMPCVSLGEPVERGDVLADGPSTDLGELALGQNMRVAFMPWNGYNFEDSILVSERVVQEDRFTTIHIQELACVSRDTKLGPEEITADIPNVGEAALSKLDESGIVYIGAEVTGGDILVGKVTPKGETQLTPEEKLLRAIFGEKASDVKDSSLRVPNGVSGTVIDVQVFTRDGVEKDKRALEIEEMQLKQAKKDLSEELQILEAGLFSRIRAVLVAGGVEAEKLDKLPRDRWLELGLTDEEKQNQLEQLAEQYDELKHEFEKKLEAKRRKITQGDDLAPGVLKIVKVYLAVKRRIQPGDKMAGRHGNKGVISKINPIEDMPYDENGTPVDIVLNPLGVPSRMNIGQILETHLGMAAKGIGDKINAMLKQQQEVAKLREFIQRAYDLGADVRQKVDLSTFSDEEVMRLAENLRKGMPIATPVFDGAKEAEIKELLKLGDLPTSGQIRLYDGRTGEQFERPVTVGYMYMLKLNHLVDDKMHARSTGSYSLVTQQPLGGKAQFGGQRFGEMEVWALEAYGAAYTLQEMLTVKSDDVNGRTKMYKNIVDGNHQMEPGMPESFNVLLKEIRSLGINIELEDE
T1 sequence (P0A8T7 whole entry): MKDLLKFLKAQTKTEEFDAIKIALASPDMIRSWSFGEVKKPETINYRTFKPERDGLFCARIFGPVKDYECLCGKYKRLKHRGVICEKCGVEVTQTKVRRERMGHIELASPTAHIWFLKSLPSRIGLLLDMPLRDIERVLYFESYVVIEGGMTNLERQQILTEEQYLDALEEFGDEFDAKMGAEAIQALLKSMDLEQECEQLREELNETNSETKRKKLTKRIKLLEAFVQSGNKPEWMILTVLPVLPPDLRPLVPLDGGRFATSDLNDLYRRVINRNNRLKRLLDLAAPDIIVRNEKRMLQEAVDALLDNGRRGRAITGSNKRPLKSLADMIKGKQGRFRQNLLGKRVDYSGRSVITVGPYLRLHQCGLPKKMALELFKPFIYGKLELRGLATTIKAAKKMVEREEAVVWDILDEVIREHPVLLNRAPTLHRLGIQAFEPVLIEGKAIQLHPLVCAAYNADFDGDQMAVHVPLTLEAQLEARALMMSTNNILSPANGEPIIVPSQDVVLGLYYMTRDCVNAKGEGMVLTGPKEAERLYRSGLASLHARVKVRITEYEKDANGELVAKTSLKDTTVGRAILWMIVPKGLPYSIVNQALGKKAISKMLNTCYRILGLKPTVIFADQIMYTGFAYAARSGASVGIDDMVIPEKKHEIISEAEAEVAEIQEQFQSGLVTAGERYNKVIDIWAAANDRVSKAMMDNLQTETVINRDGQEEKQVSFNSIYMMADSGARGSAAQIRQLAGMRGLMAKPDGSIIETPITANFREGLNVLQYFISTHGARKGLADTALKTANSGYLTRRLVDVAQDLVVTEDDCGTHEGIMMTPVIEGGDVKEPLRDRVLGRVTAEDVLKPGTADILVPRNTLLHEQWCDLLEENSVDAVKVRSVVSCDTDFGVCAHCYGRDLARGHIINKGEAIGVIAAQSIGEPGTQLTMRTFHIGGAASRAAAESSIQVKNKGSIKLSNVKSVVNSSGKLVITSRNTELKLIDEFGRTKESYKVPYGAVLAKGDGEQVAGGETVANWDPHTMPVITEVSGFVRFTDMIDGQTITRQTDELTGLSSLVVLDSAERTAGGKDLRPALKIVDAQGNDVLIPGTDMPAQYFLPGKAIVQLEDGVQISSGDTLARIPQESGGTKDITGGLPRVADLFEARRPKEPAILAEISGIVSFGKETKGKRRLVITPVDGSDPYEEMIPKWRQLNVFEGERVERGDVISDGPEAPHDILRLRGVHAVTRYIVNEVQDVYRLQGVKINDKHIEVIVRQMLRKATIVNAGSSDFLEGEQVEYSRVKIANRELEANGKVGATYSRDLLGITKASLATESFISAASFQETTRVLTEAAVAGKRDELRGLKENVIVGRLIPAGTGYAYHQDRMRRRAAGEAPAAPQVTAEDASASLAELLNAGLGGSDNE
T1 sequence (P0A7Z4 whole entry): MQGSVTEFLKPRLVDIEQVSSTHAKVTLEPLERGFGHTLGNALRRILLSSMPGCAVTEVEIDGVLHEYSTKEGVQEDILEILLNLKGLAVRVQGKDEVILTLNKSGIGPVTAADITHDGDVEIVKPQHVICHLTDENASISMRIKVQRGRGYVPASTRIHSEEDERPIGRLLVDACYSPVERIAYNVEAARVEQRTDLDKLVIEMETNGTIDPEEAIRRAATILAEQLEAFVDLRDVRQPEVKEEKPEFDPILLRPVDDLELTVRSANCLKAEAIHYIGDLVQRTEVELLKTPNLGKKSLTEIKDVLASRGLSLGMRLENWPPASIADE
T1 sequence (P0A800 2-91 partner limits assumed): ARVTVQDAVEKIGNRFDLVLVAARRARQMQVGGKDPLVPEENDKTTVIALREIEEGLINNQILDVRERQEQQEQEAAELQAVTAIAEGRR
T1 sequence (P00579 whole entry partner): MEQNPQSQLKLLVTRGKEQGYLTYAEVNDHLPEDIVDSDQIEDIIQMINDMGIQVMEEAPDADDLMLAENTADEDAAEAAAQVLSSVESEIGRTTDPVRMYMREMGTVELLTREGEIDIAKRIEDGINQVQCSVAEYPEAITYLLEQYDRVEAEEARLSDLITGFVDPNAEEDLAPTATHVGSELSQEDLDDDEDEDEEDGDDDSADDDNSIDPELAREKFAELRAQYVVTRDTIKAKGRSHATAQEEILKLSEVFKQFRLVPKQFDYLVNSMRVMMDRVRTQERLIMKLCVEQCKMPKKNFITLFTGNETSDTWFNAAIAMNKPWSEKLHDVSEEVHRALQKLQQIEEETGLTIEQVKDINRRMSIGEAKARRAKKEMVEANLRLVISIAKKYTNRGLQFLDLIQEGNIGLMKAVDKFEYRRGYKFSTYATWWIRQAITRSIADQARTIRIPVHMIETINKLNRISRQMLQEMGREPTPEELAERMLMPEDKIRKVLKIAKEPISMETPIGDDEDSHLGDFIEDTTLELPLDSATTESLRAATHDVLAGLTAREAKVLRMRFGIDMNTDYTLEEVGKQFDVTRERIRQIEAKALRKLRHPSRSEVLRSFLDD

| SMILES | *NO-dependent inactivation of RNAP (transcription) in the presence of ANSA [1] | CFU, E. coli, rich media [3] | CFU, E. coli, minimal media [3] | CFU, B. subtilis, rich media [4] | CFU, B. subtilis, minimal media [4] | further results |
| --- | --- | --- | --- | --- | --- | --- |
| CNS(=O)(=O)c1cccc2c(N)cccc12 [ANSA I] | had no effect on transcription | 10^6-10^7 CFU ml^−1 | ≈10^7 CFU ml^−1 | ≈10^7 CFU ml^−1 | ≈10^7 CFU ml^−1 | Cytotoxic effect / cell survival (MTS, in words) [2]: not; Nitrosation of ANSA in the ANSA I+ANSA II+BSA mixture (BSA): intact |
| CNc1cccc2c(S(=O)(=O)N(C)C)cccc12 [ANSA VI] | unable to enhance inactivation of RNAP | – | – | – | – | – |
| CCCCCNS(=O)(=O)c1cccc2c(NC)cccc12 [ANSA VIII] | – | ≈10^7 CFU ml^−1 | ≈10^7 CFU ml^−1 | ≈10^7 CFU ml^−1 | ≈10^7 CFU ml^−1 | Cytotoxic effect / cell survival (MTS, in words) [2]: had no effect on cell survival; Bactericidal effect / cell survival (in words) [5]: had no effect on cell survival |
| [N]=O [*NO, Nitric oxide, reference compound] | – | ≈10^6 CFU ml^−1 | ≈10^6 CFU ml^−1 | ≈10^6 CFU ml^−1 | ≈10^6 CFU ml^−1 | Effect on transcription by RNAP, agent alone [1]: partially inhibited transcription; Effect of the additive on the bactericidal effect of ANSA (CFU) [5]: restored the bactericidal effect |
| CCCCCNS(=O)(=O)c1cccc2c(N)cccc12 [ANSA V] | completely inactivated RNAP | 0-20 CFU ml^−1 | ≈10^3 CFU ml^−1 | 10^2-10^3 CFU ml^−1 | 10^2 CFU ml^−1 | – |
| O=NO [NO2^−, nitrite, reference compound] | – | – | – | – | – | Effect on transcription by RNAP, agent alone [1]: had no effect |
| CCCCCNS(=O)(=O)c1cccc2c(NC(=O)C(CCCNC(=N)N)NC(=O)C(CCCNC(=N)N)NC(=O)CNC(=O)CN)cccc12 (stereo not drawn) [ANSA VII] | unable to enhance inactivation of RNAP | 0 CFU ml^−1 | – | – | – | Cytotoxic effect / cell survival (MTS, in words) [2]: strong cytotoxic effect; Bactericidal effect / cell survival (in words) [5]: strongest bactericidal effect |
| CC1(C)N([O])C(c2ccccc2)=[N+]([O-])C1(C)C [PTIO, 2-phenyl-4,4,5,5-tetramethylimidazoline-1-oxyl-3-oxide, reference compound] | – | – | – | – | – | Effect of the additive on ANSA cytotoxicity [2]: decreased the inhibitory effect; Effect of the additive on the bactericidal effect of ANSA (CFU) [5]: almost completely abolished the inhibitory effect |
| CN(C)S(=O)(=O)c1cccc2c(N)cccc12 [ANSA III] | partial negative effect | – | – | – | – | – |
| CCCN(CCC)S(=O)(=O)c1cccc2c(N)cccc12 [ANSA II] | completely inactivated RNAP | – | – | – | – | Effect on transcription by RNAP, agent alone [1]: did not affect transcription; Formation of a stable complex with BSA (BSA; gel filtration analysis): able to form a stable complex with BSA; Nitrosation of ANSA in the ANSA I+ANSA II+BSA mixture (BSA): nitrosated |
| Nc1cccc2c(S(=O)(=O)N3CCOCC3)cccc12 [ANSA IV] | partial negative effect | – | – | – | – | – |
| COC(=O)[C@@H](N)CCCNC(=N)N[N+](=O)[O-] [L-NAME, reference compound] | – | – | – | – | – | Effect of the additive on ANSA cytotoxicity [2]: decreased the cytotoxicity |

— US7511076B2, “Nitrosation-inducible inhibitors biological macromolecules” (New York University, priority 2000, dated 2009)
